One assay has as its system HCV replicon cells. The assay can be described thus: Cell-based HCV replicon assay (replicon RNA by Taqman real time PCR). Conditions: Hepatitis C virus, 72 h, HCV replicon 1b, cells harvested on day 3; read-out: 1b EC50. In general terms: Replicon systems follow genome replication, usually without infectious particles.
The EC50 is the concentration that produces a half-maximal response. Turning to `CCCC(CCC)COC(=O)[C@H](C)NP(=O)(O)OC[C@H]1O[C@@H](n2ccc(N)nc2=O)[C@](C)(N=[N+]=[N-])[C@@H]1O` [Compound 318], the EC50 was 100 µM.

The assay is the same for the next values; noted with them: Hepatitis C virus, 72 h, read-out: 1b EC50.
Regarding `COc1nc(N)nc2c1ncn2[C@@H]1O[C@H](COP(=O)(N[C@@H](C)C(=O)OC2CCCCC2)Oc2ccccc2)[C@@H](O)[C@@]1(C)N=[N+]=[N-]` (stereo partly shown) [Compound 239], the EC50 is 3.6 µM.

Turning to `COc1nc(N)nc2c1ncn2[C@@H]1O[C@H](COP(=O)(N[C@@H](C)C(=O)OC(C)C)Oc2ccccc2Cl)[C@@H](O)[C@@]1(C)N=[N+]=[N-]` (stereo partly shown) [Compound 240], the EC50 turned out to be 5.8 µM.

For the molecule `COc1nc(N)nc2c1ncn2[C@@H]1O[C@H](COP(=O)(N[C@@H](C)C(=O)OC2CCCCC2)Oc2ccc(F)cc2)[C@@H](O)[C@@]1(C)N=[N+]=[N-]` (stereo partly shown) [Compound 241], the EC50 came to 1.9 µM.

Regarding `COC(=O)[C@H](C)NP(=O)(OC[C@H]1O[C@@H](n2cnc3c(OC)nc(N)nc32)[C@](C)(N=[N+]=[N-])[C@@H]1O)Oc1ccc(F)cc1` (stereo partly shown) [Compound 242], the EC50 was determined as 2.6 µM.

As for `COc1nc(N)nc2c1ncn2[C@@H]1O[C@H](COP(=O)(N[C@@H](C)C(=O)OC(C)C)Oc2ccc(F)cc2)[C@@H](O)[C@@]1(C)N=[N+]=[N-]` (stereo partly shown) [Compound 243], the EC50 is 1.4 µM.

In the case of `COc1nc(N)nc2c1ncn2[C@@H]1O[C@H](COP(=O)(N[C@@H](C)C(=O)OC(C)C)Oc2ccc(Cl)c(Cl)c2)[C@@H](O)[C@@]1(C)N=[N+]=[N-]` (stereo partly shown) [Compound 244], the EC50 worked out at 6 µM.

Take `COc1nc(N)nc2c1ncn2[C@@H]1O[C@H](COP(=O)(N[C@@H](C)C(=O)OCC(C)C)Oc2ccccc2)[C@@H](O)[C@@]1(C)N=[N+]=[N-]` (stereo partly shown) [Compound 245]: the EC50 turned out to be 0.4 µM.

Consider `COc1nc(N)nc2c1ncn2[C@@H]1O[C@H](COP(=O)(N[C@@H](C)C(=O)OCc2ccccc2)Oc2ccccc2)[C@@H](O)[C@@]1(C)N=[N+]=[N-]` (stereo partly shown) [Compound 246], for which the EC50 stood at 0.6 µM.

Turning to `CCOC(=O)[C@H](C)NP(=O)(OC[C@H]1O[C@@H](n2cnc3c(OC)nc(N)nc32)[C@](C)(N=[N+]=[N-])[C@@H]1O)Oc1ccc(F)cc1` (stereo partly shown) [Compound 247], the EC50 was 0.7 µM.

On to `COC(=O)[C@H](C)NP(=O)(OC[C@H]1O[C@@H](n2cnc3c(OC)nc(N)nc32)[C@](C)(N=[N+]=[N-])[C@@H]1O)Oc1ccc(Cl)c(Cl)c1` (stereo partly shown) [Compound 248], for which the EC50 is 1 µM.

As to `CCCCOC(=O)[C@H](C)NP(=O)(OC[C@H]1O[C@@H](n2cnc3c(OC)nc(N)nc32)[C@](C)(N=[N+]=[N-])[C@@H]1O)Oc1ccccc1` (stereo partly shown) [Compound 249], the EC50 came out at 0.9 µM.

Take `COc1nc(N)nc2c1ncn2[C@@H]1O[C@H](COP(=O)(N[C@@H](C)C(=O)OCC(C)C)Oc2ccc(Cl)cc2)[C@@H](O)[C@@]1(C)N=[N+]=[N-]` (stereo partly shown) [Compound 285]: the EC50 came out at 1.1 µM.

In the case of `C[C@H](NP(=O)(OC[C@H]1O[C@@H](n2ccc(=O)[nH]c2=O)[C@](C)(N=[N+]=[N-])[C@@H]1O)Oc1ccccc1)C(=O)OCc1ccccc1` (stereo partly shown) [Compound 299], the EC50 was 5.6 µM.

Regarding `C[C@H](NP(=O)(OC[C@H]1O[C@@H](n2ccc(=O)[nH]c2=O)[C@](C)(N=[N+]=[N-])[C@@H]1O)Oc1ccc(Cl)cc1)C(=O)OCc1ccccc1` (stereo partly shown) [Compound 304], the EC50 came out at 60 µM.

In the case of `C[C@H](NP(=O)(OC[C@H]1O[C@@H](n2ccc(=O)[nH]c2=O)[C@](C)(N=[N+]=[N-])[C@@H]1O)Oc1ccc2c(c1)OCO2)C(=O)OCc1ccccc1` (stereo partly shown) [Compound 305], the EC50 came out at 1.2 µM.

For the molecule `CCOc1nc(N)nc2c1ncn2[C@@H]1O[C@H](COP(=O)(N[C@@H](C)C(=O)OC2CCCCC2)Oc2ccc(Cl)cc2)[C@@H](O)[C@@]1(C)N=[N+]=[N-]` (stereo partly shown) [Compound 307], the EC50 stood at 33 µM.

As for `CCOc1nc(N)nc2c1ncn2[C@@H]1O[C@H](COP(=O)(N[C@@H](C)C(=O)OC)Oc2ccc(Cl)c(Cl)c2)[C@@H](O)[C@@]1(C)N=[N+]=[N-]` (stereo partly shown) [Compound 308], the EC50 amounted to 2.1 µM.

Consider `CCCC(CCC)COC(=O)[C@H](C)NP(=O)(OC[C@H]1O[C@@H](n2ccc(N)nc2=O)[C@](C)(N=[N+]=[N-])[C@@H]1O)Oc1ccccc1` (stereo partly shown) [Compound 317], for which the EC50 came out at 39 µM.

On to `C[C@H](NP(=O)(OC[C@H]1O[C@@H](n2ccc(=O)[nH]c2=O)[C@](C)(N=[N+]=[N-])[C@@H]1O)Oc1ccc(Cl)cc1)C(=O)OC1CCCCC1` (stereo partly shown) [Compound 324], for which the EC50 came to 4.3 µM.

In the case of `CCCC(CCC)COC(=O)[C@H](C)NP(=O)(OC[C@H]1O[C@@H](n2ccc(=O)[nH]c2=O)[C@](C)(N=[N+]=[N-])[C@@H]1O)Oc1ccccc1` (stereo partly shown) [Compound 328], the concentration giving a half-maximal response (EC50) is 2.1 µM.

Regarding `CCOc1nc(N)nc2c1ncn2[C@@H]1O[C@H](COP(=O)(N[C@@H](C)C(=O)OC(C)C)Oc2ccc(F)cc2)[C@@H](O)[C@@]1(C)N=[N+]=[N-]` (stereo partly shown) [Compound 347], the EC50 turned out to be 0.7 µM.

In the case of `CCOc1nc(N)nc2c1ncn2[C@@H]1O[C@H](COP(=O)(N[C@@H](C)C(=O)OC(C)C)Oc2ccc(Cl)c(Cl)c2)[C@@H](O)[C@@]1(C)N=[N+]=[N-]` (stereo partly shown) [Compound 348], the 50% effective concentration (EC50) amounted to 5 µM.

Consider `CCOC(=O)[C@H](C)NP(=O)(OC[C@H]1O[C@@H](n2cnc3c(OCC)nc(N)nc32)[C@](C)(N=[N+]=[N-])[C@@H]1O)Oc1ccccc1Cl` (stereo partly shown) [Compound 349], for which the EC50 was 2 µM.

As to `CCOc1nc(N)nc2c1ncn2[C@@H]1O[C@H](COP(=O)(N[C@@H](C)C(=O)OCC(C)(C)C)Oc2ccccc2Cl)[C@@H](O)[C@@]1(C)N=[N+]=[N-]` (stereo partly shown) [Compound 357], the EC50 was found to be 100 µM.

In the case of `CCCCOC(=O)[C@H](C)NP(=O)(OC[C@H]1O[C@@H](n2cnc3c(OCC)nc(N)nc32)[C@](C)(N=[N+]=[N-])[C@@H]1O)Oc1ccc(F)cc1` (stereo partly shown) [Compound 366], the EC50 amounted to 0.4 µM.

As for `CCCCOC(=O)[C@H](C)NP(=O)(OC[C@H]1O[C@@H](n2ccc(=O)[nH]c2=O)[C@](C)(N=[N+]=[N-])[C@@H]1O)Oc1ccc(F)cc1` (stereo partly shown) [Compound 367], the EC50 amounted to 3.3 µM.

As to `CCCCOC(=O)[C@H](C)NP(=O)(OC[C@H]1O[C@@H](n2cnc3c(OCC)nc(N)nc32)[C@](C)(N=[N+]=[N-])[C@@H]1O)Oc1ccc(Cl)cc1` (stereo partly shown) [Compound 368], the EC50 worked out at 0.08 µM.

Still in this assay, the particulars now being: read-out: 1b EC50.
With `COC(=O)[C@H](C)NP(=O)(OC[C@H]1O[C@@H](n2ccc(=O)[nH]c2=O)[C@](C)(N=[N+]=[N-])[C@@H]1O)Oc1ccccc1Cl` (stereo partly shown) [Compound 236], the EC50 is 6.4 µM.

Consider `CCOC(=O)[C@H](C)NP(=O)(OC[C@H]1O[C@@H](n2cnc3c(OC)nc(N)nc32)[C@](C)(N=[N+]=[N-])[C@@H]1O)Oc1ccccc1` (stereo partly shown) [Compound 250], for which the EC50 came out at 0.7 µM.

Turning to `C[C@H](NP(=O)(OC[C@H]1O[C@@H](n2ccc(=O)[nH]c2=O)[C@](C)(N=[N+]=[N-])[C@@H]1O)Oc1ccc2c(c1)OCO2)C(=O)OCc1ccccc1` (stereo partly shown) [Compound 306], the EC50 worked out at 1.3 µM.

In the case of `CCOC(=O)[C@H](C)NP(=O)(OC[C@H]1O[C@@H](n2ccc(=O)[nH]c2=O)[C@](C)(N=[N+]=[N-])[C@@H]1O)Oc1ccc(Cl)cc1` (stereo partly shown) [Compound 323], the EC50 came to 5.3 µM.

`COC(=O)[C@H](C)NP(=O)(OC[C@H]1O[C@@H](n2ccc(=O)[nH]c2=O)[C@](C)(N=[N+]=[N-])[C@@H]1O)Oc1ccc(Cl)cc1` (stereo partly shown) [Compound 325]: the EC50 came out at 4 µM.

In the case of `C[C@H](NP(=O)(OC[C@H]1O[C@@H](n2ccc(N)nc2=O)[C@](C)(N=[N+]=[N-])[C@@H]1O)Oc1ccccc1)C(=O)OC1CCCC1` (stereo partly shown) [Compound 336], the EC50 amounted to 15 µM.

The values above are taken from US9156872B2, “2′-azido substituted nucleoside derivatives and methods of use thereof for the treatment of viral diseases” (priority 2011, dated 2015).
